“And” between values parts separate entries of the source, which are not always exact repeats. Equal entries are not always repeated. Peptide text beside a SMILES is read from it. * marks the point of attachment. For = O=C*
Tests used:
male mice = experiment: Behavioural avoidance test, FEU vs. FEU supplemented with peptide (Fig. 8, Supplementary Fig. 4); type: in vivo, mouse; conditions: for avoidance index: mean ± s.e.m.; for Preference (%): group mean value, FEU vs FEU supplemented with 100 µM peptide
Procedure: These assays were adapted from behavioural procedures described previously[14],[60]. We tested avoidance by giving adult male mice (8–14 week old) of various genotypes a choice to freely investigate two types of chemical stimuli: FEU vs. FEU supplemented with a peptide. Mice were sexually naïve and not exposed to the test stimuli prior to the testing day. Mice were habituated for three days (40 min each day) to clean filter papers (2.5 cm diameter), each deposited in a sterile plastic culture dish and placed in opposite corners of the test cage (30 × 12 cm). After the third habituation period, the test subject was transferred into a new cage containing fresh filter papers/dishes with either of the two test stimuli. One filter paper was impregnated with 45 µl of fresh urine pooled from two sexually naïve female B6 mice (8–16 weeks old) in oestrus (FEU, female oestrous urine) and 5 µl physiological solution containing (in mM): NaCl, 130; KCl, 5; Na-Hepes, 10; CaCl2, 2; glucose, 10; pH = 7.4. For testing the effects of specific peptides, the second filter paper was impregnated with FEU supplemented with a given peptide (100 or 50 µM final concentration, dissolved in physiological solution). Direct physical contact was allowed. Behaviour was recorded for 10 min from the top of the cage. Mice were exposed only once to a given peptide solution, and were exposed to only one peptide stimulus per day. Stimuli were presented in randomised order. […] This investigative behaviour was quantified as the time spent in close contact with each filter paper, scored manually by an observer blind to the experimental conditions using Behavioural Observation Research Interactive Software (BORIS)[85]. Contact time was measured as the time during which the nose crossed the border of a petri dish containing impregnated filter paper. An avoidance index was calculated as (TP — aTU)/(aTP + aTU), with TP as the time an individual mouse investigated a FEU-peptide mixture, aTP as the average time of all tested mice investigating this stimulus and aTU as the average time of all mice investigating FEU without added peptide. Negative values represent avoidance and positive values represent attraction. For analysing investigation of sick conspecifics, B6 mice were injected either with LPS or PBS as described above. In total, 4 h post injection, these mice were anaesthetised with 165 mg/kg ketamine (Pharmacia GmbH, Berlin, Germany) and 11 mg/kg xylazine (Bayer Health Care, Leverkusen, Germany) and then used in behavioural tests.

mouse Fpr3 (Fpr-rs1) = molecular target: T1, mouse Fpr3 (Fpr-rs1) (Mus musculus, UniProt O08790); experiment: Heterologous expression / high-throughput Ca2+ imaging agonist screen and sequence selectivity of Fpr3 (Fig. 1a, 2c-e, 2g, 2i); type: cell-based; conditions: for Ca2+ response, mean: mean of n = 3 experiments in triplicate (n = 5 for f-MKKFRW), Fpr3 + Gα16 HEK293T, Fluo-4/AM, buffer C1 pH 7.2, mock 0.059-0.060
T1 construct: expressed in transfected cells; host or cells: HEK293T (DSMZ # ACC-635), transient transfection with jetPEI
T1 sequence (O08790 1-351): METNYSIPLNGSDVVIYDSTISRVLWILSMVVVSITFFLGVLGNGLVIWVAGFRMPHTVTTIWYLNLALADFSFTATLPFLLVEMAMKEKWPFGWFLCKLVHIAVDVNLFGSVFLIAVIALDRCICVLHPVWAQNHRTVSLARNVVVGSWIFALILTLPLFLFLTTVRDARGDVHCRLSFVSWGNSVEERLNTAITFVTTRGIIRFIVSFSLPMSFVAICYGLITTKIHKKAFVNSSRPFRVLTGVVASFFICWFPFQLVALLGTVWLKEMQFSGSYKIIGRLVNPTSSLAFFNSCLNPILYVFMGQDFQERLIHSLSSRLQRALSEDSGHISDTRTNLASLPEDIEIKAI
Procedure: An Fpr3 gene subcloned from genomic DNA of C57BL/6J mice into pcDNA3.1 (Invitrogen) was used in heterologous experiments[21],[80]. HEK293T (DSMZ # ACC-635) cells were seeded at 20–30% confluence on poly-D-lysine-coated (10 µg/ml in PBS) black 96-well µCLEAR-Plates (Greiner Bio-One). Cells were transfected 24 h later using jetPEI™ (Polyplus-transfection SA) according to the manufacturer’s protocol for 96-well transfections. For Ca^2+ imaging experiments, 0.125 µg of DNA plasmid encoding Fpr3 were cotransfected with equal amounts of a plasmid encoding Gα16, a promiscuous G protein α-subunit. Ca^2+ signals to agonist stimulation were recorded 48 h post transfection using the Ca^2+ indicator dye Fluo-4/AM (Molecular Probes) and a fluorescence imaging plate reader (FLIPR) system (Molecular Devices). Cotransfection of a plasmid encoding Gα16 with an empty vector used to subclone Fpr3 gave no agonist-evoked Ca^2+ responses.
We used custom-made peptides with a length of 6–21 amino acids to screen for agonists. Sequences of fMet peptides were designed according to motifs present at the N-termini of 15,125 specific bacterial proteins as annotated in UniProt. Peptides were chemically synthesised, purified, and verified by mass spectroscopy (MALDI-TOF) by commercial suppliers. Purity of all peptides was >95%. Source, sequence and purity of each peptide are listed in Supplementary Data 1. Lyophilised peptides were routinely dissolved in the Ca^2+ imaging assay buffer C1 (130 mM NaCl, 10 mM HEPES, 5 mM KCl, 2 mM CaCl2, 5 mM glucose, pH 7.2) as 0.2–1 mM stock solutions and kept in small aliquots at −20 °C until use. […] The sequences of these peptides exist in proteins from the following bacterial strains[21]: Psychromonas ingrahamii that belongs to a marine ice water microbial community, Desulfotomaculum reducens that is found in deep freshwater lakes, and Pseudomonas grimontii, a plant pathogen. As mice are unlikely to encounter these strains in their natural habitat, these findings are probably not of biological relevance.

[1] = 100 µM, B6 mice (f-MKKFRW also ΔFpr3-lacZ+/+, cGαo+/−, Trpc2+/−)
[2] = B6, 100 µM in FEU, n = 10-11, negative = avoidance
[3] = Fig. 8c, individual values, B6 mice
[4] = Fig. 8c, mean, B6 mice, n = 11 f-MKKFRW, 11 MKKFRW, 10 f-MGFFIS, 10 f-MEQQNK, FEU control -0.002

For CSCC[C@H](NC=O)C(=O)N[C@@H](CCCCN)C(=O)N[C@@H](CCCCN)C(=O)N[C@@H](Cc1ccccc1)C(=O)N[C@@H](CCCNC(=N)N)C(=O)N[C@@H](Cc1c[nH]c2ccccc12)C(=O)O [f-MKKFRW] (For-MKKFRW-OH), which “avoidance, in words” value (male mice; 50 µM, B6 mice) is on record?
Its value is “mice were still capable of displaying avoidance”.

And the “avoidance, in words” value (male mice; [1])?
Its value is “robust avoidance”.

And the “avoidance, in words” value (male mice; 100 µM, ΔFpr3-lacZ −/−, cGαo −/− and Trpc2 −/− mice)?
The value was “absent”.

What about the avoidance index (male mice; B6, 50 µM in FEU, N = 9, Supplementary Fig. 4d) of the same compound?
The avoidance index was -0.34 ± 0.06.

What about the avoidance index (male mice; [2]) of the same compound?
Its avoidance index is −0.34 ± 0.03.

What about the “Preference Index” value (male mice; [3]) of the same compound?
The value was -0.2596 and -0.3493 and -0.4593 and -0.377 (2×) and -0.1335 and -0.375 and -0.3656 and -0.2037 and -0.2877 and -0.531.

And the “Preference Index” value (male mice; [4])?
Its value is -0.34.

And the “Preference Index” value (male mice; Fig. 8e, individual values, cGao +/-)?
The value was -0.2157 and -0.2715 and -0.2275 and -0.592 and -0.6063 and -0.5538 and -0.3716 and -0.4364 and -0.4748 and -0.4802 and -0.5951 and -0.504 and -0.5805.

What about the “Preference Index” value (male mice; Fig. 8e, individual values, cGao -/-) of the same compound?
Its value is 0.466 and 0.06846 and 0.3027 and 0.3207 and 0.1056 and -0.3803 and 0.00671 and 0.2965 and 0.7963 and 0.4351 and -0.3658 and -0.3561 and -0.3465.

And the “Preference Index” value (male mice; Fig. 8e, mean, cGao +/-, n = 13 f-MKKFRW, 12 MKKFRW, FEU control -0.0358)?
The value was -0.45.

What about the “Preference Index” value (male mice; Fig. 8e, mean, cGao -/-, n = 13, FEU control 0.15) of the same compound?
The value was 0.10.

And the “Preference Index” value (male mice; Fig. 8f, individual values, Trpc2 +/-)?
The value was -0.1378 and -0.4957 and -0.5951 and -0.4313 and -0.5692 and -0.4357 and -0.03894 and -0.2863 and -0.157 and -0.6487 and -0.5152 and -0.5504.

And the “Preference Index” value (male mice; Fig. 8f, individual values, Trpc2 -/-)?
The value was -0.1066 and -0.3083 and -0.1978 and -0.152 and 0.6895 and 0.2354 and -0.08494 and 0.4331 and -0.3499 and -0.2993 and -0.07691.

And the “Preference Index” value (male mice; Fig. 8f, mean, Trpc2 +/-, n = 12 f-MKKFRW, 9 MKKFRW, FEU control -0.0531)?
Its value is -0.41.

And the “Preference Index” value (male mice; Fig. 8f, mean, Trpc2 -/-, n = 11 f-MKKFRW, 8 MKKFRW, FEU control -0.10)?
Its value is -0.02.

And the “Preference (%)” value (male mice; Fig. 8g, ∆Fpr3-lacZ +/+ males, FEU/FEU control -5.85844)?
The value was -25.7155%.

What about the “Preference (%)” value (male mice; Fig. 8g, ∆Fpr3-lacZ -/- males, FEU/FEU control 2.58474) of the same compound?
Its value is 9.5733%.

And the “Preference (%)” value (male mice; Fig. 8h, Trpc2 +/- males, FEU/FEU control 0.100694)?
Its value is -20.0023%.

And the “Preference (%)” value (male mice; Fig. 8h, Trpc2 -/- males, FEU/FEU control -3.21189)?
The value was -1.896%.

And the “Preference Index” value (male mice; Fig. 8d, individual values, ∆Fpr3-lacZ +/+)?
Its value is -0.634 and -0.7071 and -0.2684 and -0.569 and -0.6199 and -0.495 and -0.4793 and -0.629 and -0.5062.

And the “Preference Index” value (male mice; Fig. 8d, individual values, ∆Fpr3-lacZ -/-)?
The value was -0.00973 and -0.216 and 0.248 and 0.6807 and 0.8928 and 0.2328 and 0.2493 and -0.01291 and 0.00975 and -0.2244 and 0.2479 and 0.4981.

What about the “Preference Index” value (male mice; Fig. 8d, mean, ∆Fpr3-lacZ +/+, n = 9 f-MKKFRW, 6 MKKFRW, FEU control -0.06) of the same compound?
The value was -0.55.

What about the “Preference Index” value (male mice; Fig. 8d, mean, ∆Fpr3-lacZ -/-, n = 12, FEU control 0.19) of the same compound?
The value was 0.22.

And the avoidance index (male mice; Trpc2 +/−, 100 µM in FEU)?
Its avoidance index is −0.41 ± 0.06.

And the avoidance index (male mice; Trpc2 −/−, 100 µM in FEU)?
The avoidance index was −0.02 ± 0.10.

What about the avoidance index (male mice; cGαo +/−, 100 µM in FEU) of the same compound?
The avoidance index was −0.45 ± 0.04.

And the avoidance index (male mice; cGαo −/−, 100 µM in FEU, n = 13)?
The avoidance index was 0.10 ± 0.11.

What about the avoidance index (male mice; ∆Fpr3-lacZ +/+, 100 µM in FEU) of the same compound?
The avoidance index was −0.55 ± 0.04.

And the avoidance index (male mice; ∆Fpr3-lacZ −/−, 50 µM in FEU, N = 5, Supplementary Fig. 4d)?
Its avoidance index is 0.005 ± 0.08.

And the avoidance index (male mice; ∆Fpr3-lacZ −/−, 100 µM in FEU, n = 12)?
The avoidance index was 0.22 ± 0.10.

And the “activation of Fpr3 in agonist screen, in words” value (mouse Fpr3 (Fpr-rs1); 3 µM, Fpr3-transfected HEK293T, Gα16, Fluo-4/AM, FLIPR, Fig. 1a)?
The value was “activated Fpr3-expressing HEK293T”.

And the “Ca2+ response, mean” value (mouse Fpr3 (Fpr-rs1); 3 µM, FLIPR)?
Its value is 0.110 ∆F/F.

And the “Fpr3 activation by sequence variants, in words” value (mouse Fpr3 (Fpr-rs1); 30 µM (3 or 30 µM for elongated peptides), Fpr3-transfected HEK293T, Fig. 2c-e, i)?
Its value is “Fpr3 recognises the core agonist f-MKKFRW”.

And the “Ca2+ response, mean” value (mouse Fpr3 (Fpr-rs1); 30 µM, FLIPR)?
Its value is 0.423 ∆F/F.

And the “specific Ca2+ response of Fpr3 in agonist screen, in words” value (mouse Fpr3 (Fpr-rs1); 3 or 30 µM, Fpr3-transfected HEK293T, panel of 41 peptides, Fig. 1a)?
The value was “caused Fpr3 activation”.

How did the “avoidance, in words” value (male mice; [1]) turn out when “f-MGFFIS [bacterial signal peptide fragment]” was run?
Its value is “failed to elicit avoidance”.

And the avoidance index (male mice; [2])?
The avoidance index was 0.13 ± 0.09.

What about the “Preference Index” value (male mice; [3]) of the same compound?
Its value is -0.07414 and 0.6081 and -0.2699 and 0.01401 and 0.4619 and -0.1746 and 0.304 and 0.1043 and 0.0419 and 0.2857.

And the “Preference Index” value (male mice; [4])?
The value was 0.13.

And the “Ca2+ response, mean” value (mouse Fpr3 (Fpr-rs1); 3 µM, FLIPR)?
Its value is 0.055 ∆F/F.

And the “Ca2+ response, mean” value (mouse Fpr3 (Fpr-rs1); 30 µM, FLIPR)?
Its value is 0.048 ∆F/F.

Reference: article PMC6814738, “Bacterial MgrB peptide activates chemoreceptor Fpr3 in mouse accessory olfactory system and drives avoidance behaviour” (Nature Communications, 2019)
